The values that follow come from paper PMC5190008, “BO-1055, a novel DNA cross-linking agent with remarkable low myelotoxicity shows potent activity in sarcoma models” (Oncotarget, 2016).

One data set relates to H526 cells. As to the kind of experiment: Alamar Blue cell proliferation assay. Conditions: Homo sapiens, NCI-H526; H526 (small cell lung cancer). It is filed as cell-based. As for the experimental part: (§1) AlamarBlue® assay (Invitrogen, Carlsbad, CA, USA) was performed to evaluate anti-proliferative activity of the drugs in cell lines and primary cells. Cells were plated in 96-well plates ([…] in 200 μL of medium). After 12 h, one of the previously mentioned drugs was added to each well at the specified concentration and incubated for 72 h. At the end of the incubation period, 20 μL of stock solution (0.312 mg/mL) of the Alamar Blue was added to each well. The absorbance was measured using the Synergy H1 hybrid multi-mode microplate reader (BioTek, USA). The drug effect was quantified as the percentage of control absorbance at 540 nm and 585 nm. Optical density was determined for 3 replicates per treatment condition and cell proliferation in drug-treated cells was normalized to their respective controls. All experiments were performed in triplicate.
(§2) Data are presented as mean±S.E.M. of at least three independent experiments done in triplicate. The comparison of means between treated and control mice was performed using two-tailed T-test or ANOVA (for more than two groups) as implemented in GraphPad Prism (version 4; GraphPad Software). Graphpad Prism software was used to plot concentration-effect curves and determine the drug concentration that inhibited the growth of cell lines by 50% compared to the control (IC50). A p-value of 0.05 or less was considered significant. Combination index (CI) values, as calculated by CompuSyn software (Chou and Martin, 2007), were used to evaluate the interaction between BO-1055 and a second drug (Topotecan, SN38, Doxorubicin or PU-H71). The Chou-Talalay method was used to quantify the synergism (CI < 1), additive effect (CI = 1) and antagonism (CI > 1) of various drug combinations.

In the next data set the test system is TC32 cells. As to the kind of experiment: Alamar Blue cell proliferation assay. It is filed as cell-based. Conditions: Homo sapiens, TC-32; TC32, 72 h drug exposure. As for the experimental part: as §1, §2
For orientation: Resazurin is reduced to fluorescent resorufin, in cell work by metabolically active cells.

The next data set concerns U2OS cells. In words: Alamar Blue cell proliferation assay. It is filed as cell-based. Conditions: Homo sapiens, 72 h drug exposure. The method, then:
as §1, §2

Another data set deals with DSRCT cell lines. In words: Alamar Blue cell proliferation assay. It is filed as cell-based. The conditions noted are these: Homo sapiens. As for the experimental part:
as §1, §2

In another data set the test system is A673 cells. In words: Alamar Blue cell proliferation assay. The conditions noted are these: Homo sapiens; A673, 72 h drug exposure. It is filed as cell-based. The method, then:
as §1, §2

The test system of data set [1] is patient derived Ewing sarcoma xenografts. As to the kind of experiment: Cyclophosphamide resistant patient-derived Ewing sarcoma xenografts. It is filed as in vivo, NSG mice. Conditions: 30mg/kg/dose i.v. q2d x 4, tumors progressed to 500mm^3 after MTD cyclophosphamide. As for the experimental part: Patient derived xenografts were established from Ewing sarcoma patients who progressed through first line chemotherapy that included cyclophosphamide, doxorubicin, vincristine, ifosfamide and etoposide (PS3). When these Ewing sarcoma xenografts (n = 10) reached 100mm^3, they were randomized to control and treatment groups.
All mouse experiments were performed at the animal core facility at MSKCC under an approved protocol following the IACUC guidelines. Five to seven-week-old NOD/SCID IL2R gamma null (NSG) mice (bred at the Mouse Genetics Core Facility, MSKCC) were used for in vivo experiments. All mouse experiments were done following the IACUC guidelines at the animal facility at MSKCC. Tumors were induced using 10^6 A673 cells or A204 cells in 0.2ml 1:1 cellular medium, Matrigel matrix (BD Bioscience, Bedford, MA) and injected subcutaneously (s.q) into the right flank. The tumors were measured every 3 d with a caliper, and the diameters were recorded. Tumor volume was calculated by the formula a^2 b/2 where ‘a’ is the smallest and ‘b’ is the largest diameter. When the tumors reached 100mm^3, we randomized mice into control and drug treatment groups. Treatment groups received BO-1055 by tail vein injection at 10mg/kg, 20mg/kg and 30mg/kg q2d x 5 doses for mice bearing A673 xenografts. BO-1055 was given at 30mg/kg q2d x 5 doses for mice bearing A204 xenografts. […]
In general terms: In xenograft studies the graft and the host belong to different species.

For the next data set, the system named is cord blood CD34+ cells. In words: Comet assay. In kind it is cell-based, human. Conditions: 3h. As for the experimental part: We used comet assay, which includes single cell gel electrophoresis to assess DNA breaks when exposed to radiation or DNA damaging agents. […] Olive moment (micrometers), a product of tail DNA% and the distance between the centroids of head and tail, is an accurate parameter of DNA damage. […] Gamma-H2AX (γH2AX) phosphorylation is the initial step in DNA damage response following double stranded breaks and is responsible for recruiting DNA repair proteins.
Comet assay was performed according to the protocol described earlier. Cells were treated with BO-1055 at 2μM concentration for 3h, or immediately after exposure to 8Gy radiation after which they were isolated and mixed with 1% low melting point agarose in a tube. The cells in agarose were transferred to slides coated with normal melting point agarose. The agarose-immobilized cells were lysed in alkaline solution and the agarose trapped DNA was electrophoresed. DNA was stained with ethidium bromide and image acquisition was done immediately. DNA damage quantification was performed using OpenComet v1.3, an open-source software plugin in Image J 1.47v software (NIH, USA) for automated analysis. Olive moment, which is the product of tail DNA% and the distance between the intensity-weighted centroids of head and tail was taken from the output for analysis.

Some results are limits rather than exact numbers.

Turning to `CN(C)CCNC(=O)c1cccc(NC(=O)Nc2ccc(N(CCCl)CCCl)cc2)c1` [BO-1055], the IC50 in the data set with H526 cells was 250 nM; with TC32 cells, 600 nM; with U2OS cells, greater than 10000 nM; in the data set on DSRCT cell lines, 2000 to 3000 nM; with A673 cells, 520 nM. Also, the tumor response entry in data set [1] is “tumor regression”. In the data set with cord blood CD34+ cells, the “olive moment relative to radiation (XRT, 8Gy)” value is “relatively less”.

As a reminder, the IC50 is the concentration needed to halve the response being measured.
